The text below walks through data of patent publication US10206394B2, “Herbicidal compounds” (Syngenta Participations AG, priority 2014, dated 2019).

Read-outs that look alike come from different tables or passages of the source.

What all share (assay): Glasshouse assay for herbicidal activity (pre- and post-emergence), percentage phytotoxicity
Common to all, as to type: in vivo

One test deals with Avena fatua (AVEFA). Particulars: Avena fatua. An outline of the steps:
(§1)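 Seeds were sown in standard soil in pots and grown one day (pre-emergence) or about 12 days (post-emergence) before herbicide application. Plants were kept at 24/18 °C (warm-climate) or 20/16 °C (cool-climate) day/night, 16 h light, 65% humidity, watered twice daily, and damage was scored visually at 15 DAA (POST) or 20 DAA (PRE).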

Test [1] concerns Echinochloa crus-galli (ECHCG). Particulars: Echinochloa crus-galli. An outline of the steps:
as §1

A further test deals with Lolium perenne (LOLPE). As to conditions: Lolium perenne. In a few lines: as §1
For test [2], the system named is Alopecurus myosuroides (ALOMY). As to conditions: Alopecurus myosuroides. An outline of the steps:
as §1

Where [3] appears, read: post-emergence, 360 h, 250 g/ha, post-emergence, 15 DAA, visual assessment (100%=total damage, 0%=no damage), read-out: Post-emergence herbicidal activity (percentage phytotoxicity) AVEFA POST.
The mark [4] stands for this setting: pre-emergence, 480 h, 250 g/ha, pre-emergence, 20 DAA, visual assessment (100%=total damage, 0%=no damage), read-out: Pre-emergence herbicidal activity (percentage phytotoxicity) AVEFA PRE.
Where [5] appears, read: post-emergence, 360 h, 250 g/ha, post-emergence, 15 DAA, visual assessment (100%=total damage, 0%=no damage), read-out: Post-emergence herbicidal activity (percentage phytotoxicity) ECHCG POST.
[6] abbreviates: pre-emergence, 480 h, 250 g/ha, pre-emergence, 20 DAA, visual assessment (100%=total damage, 0%=no damage), read-out: Pre-emergence herbicidal activity (percentage phytotoxicity) ECHCG PRE.
The mark [7] stands for this setting: post-emergence, 360 h, 250 g/ha, post-emergence, 15 DAA, visual assessment (100%=total damage, 0%=no damage), read-out: Post-emergence herbicidal activity (percentage phytotoxicity) LOLPE POST.
The mark [8] stands for this setting: pre-emergence, 480 h, 250 g/ha, pre-emergence, 20 DAA, visual assessment (100%=total damage, 0%=no damage), read-out: Pre-emergence herbicidal activity (percentage phytotoxicity) LOLPE PRE.
[9] abbreviates: post-emergence, 360 h, 250 g/ha, post-emergence, 15 DAA, visual assessment (100%=total damage, 0%=no damage), read-out: Post-emergence herbicidal activity (percentage phytotoxicity) ALOMY POST.
[10] abbreviates: pre-emergence, 480 h, 250 g/ha, pre-emergence, 20 DAA, visual assessment (100%=total damage, 0%=no damage), read-out: Pre-emergence herbicidal activity (percentage phytotoxicity) ALOMY PRE.
The mark [11] stands for this setting: post-emergence, 360 h, POST-emergence, rate 250 g/ha, visual score 15 DAA (100%=total damage, 0%=no damage), read-out: Post-emergence herbicidal activity (percentage phytotoxicity) AVEFA POST.
The mark [12] stands for this setting: pre-emergence, 480 h, PRE-emergence, rate 250 g/ha, visual score 20 DAA (100%=total damage, 0%=no damage), read-out: Pre-emergence herbicidal activity (percentage phytotoxicity) AVEFA PRE.
Setting [13] is: post-emergence, 360 h, POST-emergence, rate 250 g/ha, visual score 15 DAA (100%=total damage, 0%=no damage), read-out: Post-emergence herbicidal activity (percentage phytotoxicity) ECHCG POST.
The mark [14] stands for this setting: pre-emergence, 480 h, PRE-emergence, rate 250 g/ha, visual score 20 DAA (100%=total damage, 0%=no damage), read-out: Pre-emergence herbicidal activity (percentage phytotoxicity) ECHCG PRE.
The mark [15] stands for this setting: post-emergence, 360 h, POST-emergence, rate 250 g/ha, visual score 15 DAA (100%=total damage, 0%=no damage), read-out: Post-emergence herbicidal activity (percentage phytotoxicity) LOLPE POST.
Where [16] appears, read: pre-emergence, 480 h, PRE-emergence, rate 250 g/ha, visual score 20 DAA (100%=total damage, 0%=no damage), read-out: Pre-emergence herbicidal activity (percentage phytotoxicity) LOLPE PRE.
The mark [17] stands for this setting: post-emergence, 360 h, POST-emergence, rate 250 g/ha, visual score 15 DAA (100%=total damage, 0%=no damage), read-out: Post-emergence herbicidal activity (percentage phytotoxicity) ALOMY POST.
The mark [18] stands for this setting: pre-emergence, 480 h, PRE-emergence, rate 250 g/ha, visual score 20 DAA (100%=total damage, 0%=no damage), read-out: Pre-emergence herbicidal activity (percentage phytotoxicity) ALOMY PRE.

Regarding `Cc1cc(C)c(C2C(=O)CC(CC(=O)NCc3cccc(C#N)c3)C2=O)c(C)c1` (stereo not drawn) [Compound B9], the pest or weed control at 250 g/ha in the test on Avena fatua (AVEFA) (setting [3]) is 70%; with Avena fatua (AVEFA) (setting [4]) it was 70%; in test [1] (setting [5]), 70%; in test [1] (setting [6]) it was 100%; with Lolium perenne (LOLPE) (setting [7]), 70%; in the test on Lolium perenne (LOLPE) (setting [8]) it was 90%. Further, the pest or weed control at 250 g/ha in test [2] (setting [9]) and in test [2] (setting [10]) was 70% in each case.

For `C=CCNC(=O)CC1CC(=O)C(c2c(C)cc(C)cc2CC)C1=O` (stereo not drawn) [Compound B256], the pest or weed control at 250 g/ha (in the test with Avena fatua (AVEFA) (setting [11]); in the test with Avena fatua (AVEFA) (setting [12]); in test [1] (setting [13]); in test [1] (setting [14]); with Lolium perenne (LOLPE) (setting [15]); in the test on Lolium perenne (LOLPE) (setting [16])) was 100% in each case. Further, the pest or weed control at 250 g/ha in test [2] (setting [17]) and in test [2] (setting [18]) was 100% each time.

For `Cc1cc(-c2ncc(F)cn2)cc(C)c1C1C(=O)CC(CC(=O)NCc2ccc(C#N)cc2)C1=O` (stereo not drawn) [Compound B272], the pest or weed control at 250 g/ha in the test with Avena fatua (AVEFA) (setting [11]) was 100%; in the test with Avena fatua (AVEFA) (setting [12]) it was 80%; in test [1] (setting [13]), 100%; in test [1] (setting [14]) it was 90%; in the test with Lolium perenne (LOLPE) (setting [15]), 80%; with Lolium perenne (LOLPE) (setting [16]) it was 50%. Besides, the values for the pest or weed control at 250 g/ha in test [2] (setting [17]) and in test [2] (setting [18]) were 100% and 80%, respectively.

`C=C(C)CNC(=O)CC1CC(=O)C(c2c(C)cc(-c3ncc(F)cc3F)cc2C)C1=O` (stereo not drawn) [Compound B200]: the pest or weed control at 250 g/ha in the test with Avena fatua (AVEFA) (setting [11]) is 100%; in the test with Avena fatua (AVEFA) (setting [12]) it was 90%; in test [1] (setting [13]), 100%; in test [1] (setting [14]) it was 100%; in the test on Lolium perenne (LOLPE) (setting [15]) it was 100%; in the test on Lolium perenne (LOLPE) (setting [16]), 100%. Besides, the pest or weed control at 250 g/ha in test [2] (setting [17]) and in test [2] (setting [18]) was 100% throughout.

For `COCC(C)(C)NC(=O)CC1CC(=O)C(c2c(C)cc(-c3ncc(Cl)cc3F)cc2C)C1=O` (stereo not drawn) [Compound B325], the pest or weed control at 250 g/ha was determined as 100% in the test with Avena fatua (AVEFA) (setting [11]); 70% in the test on Avena fatua (AVEFA) (setting [12]); 100% in test [1] (setting [13]); 100% in test [1] (setting [14]); 100% with Lolium perenne (LOLPE) (setting [15]); 100% in the test on Lolium perenne (LOLPE) (setting [16]). For the same molecule, the pest or weed control at 250 g/ha in test [2] (setting [17]) and in test [2] (setting [18]) was 100% throughout.

Turning to `C/C=C/c1cc(C)c(C2C(=O)CC(CC(=O)NCc3ccc(OC)cc3)C2=O)c(CC)c1` (stereo not drawn) [Compound B189], the pest or weed control at 250 g/ha with Avena fatua (AVEFA) (setting [11]) was 90%; with Avena fatua (AVEFA) (setting [12]) it was 40%; in test [1] (setting [13]) it was 100%; in test [1] (setting [14]) it was 80%; with Lolium perenne (LOLPE) (setting [15]), 90%; in the test with Lolium perenne (LOLPE) (setting [16]), 80%. Also, the pest or weed control at 250 g/ha in test [2] (setting [17]) is 90%; in test [2] (setting [18]), 60%.

As for `COCC(C)NC(=O)CC1CC(=O)C(c2c(C)cc(-c3ncc(F)cc3F)cc2C)C1=O` (stereo not drawn) [Compound B335], the pest or weed control at 250 g/ha in the test on Avena fatua (AVEFA) (post-emergence, 360 h, Rate 250 g/ha, post-emergence, visual assessment 15 DAA, 100%=total damage, 0%=no damage, read-out: Post-emergence herbicidal activity (percentage phytotoxicity) AVEFA POST) was determined as 100%; in the test with Avena fatua (AVEFA) (pre-emergence, 480 h, Rate 250 g/ha, pre-emergence, visual assessment 20 DAA, 100%=total damage, 0%=no damage, read-out: Pre-emergence herbicidal activity (percentage phytotoxicity) AVEFA PRE), 100%; in test [1] (post-emergence, 360 h, Rate 250 g/ha, post-emergence, visual assessment 15 DAA, 100%=total damage, 0%=no damage, read-out: Post-emergence herbicidal activity (percentage phytotoxicity) ECHCG POST), 100%; in test [1] (pre-emergence, 480 h, Rate 250 g/ha, pre-emergence, visual assessment 20 DAA, 100%=total damage, 0%=no damage, read-out: Pre-emergence herbicidal activity (percentage phytotoxicity) ECHCG PRE), 90%; with Lolium perenne (LOLPE) (post-emergence, 360 h, Rate 250 g/ha, post-emergence, visual assessment 15 DAA, 100%=total damage, 0%=no damage, read-out: Post-emergence herbicidal activity (percentage phytotoxicity) LOLPE POST), 100%; in the test on Lolium perenne (LOLPE) (pre-emergence, 480 h, Rate 250 g/ha, pre-emergence, visual assessment 20 DAA, 100%=total damage, 0%=no damage, read-out: Pre-emergence herbicidal activity (percentage phytotoxicity) LOLPE PRE), 100%. Also, the pest or weed control at 250 g/ha came out at 100% in test [2] (post-emergence, 360 h, Rate 250 g/ha, post-emergence, visual assessment 15 DAA, 100%=total damage, 0%=no damage, read-out: Post-emergence herbicidal activity (percentage phytotoxicity) ALOMY POST) and 100% in test [2] (pre-emergence, 480 h, Rate 250 g/ha, pre-emergence, visual assessment 20 DAA, 100%=total damage, 0%=no damage, read-out: Pre-emergence herbicidal activity (percentage phytotoxicity) ALOMY PRE).

For `C=CC1(NC(=O)CC2CC(=O)C(c3c(C)cc(C)cc3C)C2=O)CC1` (stereo not drawn) [Compound B62], the pest or weed control at 250 g/ha came out at 70% with Avena fatua (AVEFA) (setting [3]); 40% in the test on Avena fatua (AVEFA) (setting [4]); 70% in test [1] (setting [5]); 90% in test [1] (setting [6]); 90% with Lolium perenne (LOLPE) (setting [7]); 90% in the test with Lolium perenne (LOLPE) (setting [8]). For the same molecule, the figures for the pest or weed control at 250 g/ha in test [2] (setting [9]) and in test [2] (setting [10]) were 70% and 80%, respectively.

Turning to `CCc1cc(C)cc(C)c1C1C(=O)CC(CC(N)=O)C1=O` (stereo not drawn) [Compound B171], the pest or weed control at 250 g/ha in the test on Avena fatua (AVEFA) (setting [11]) was found to be 100%; in the test with Avena fatua (AVEFA) (setting [12]) it was 100%; in test [1] (setting [13]) it was 100%; in test [1] (setting [14]), 100%; in the test on Lolium perenne (LOLPE) (setting [15]), 90%; in the test with Lolium perenne (LOLPE) (setting [16]), 100%. The pest or weed control at 250 g/ha in test [2] (setting [17]) and in test [2] (setting [18]) was 100% in each case.

As for `C#CCNC(=O)CC1CC(=O)C(c2c(C)cc(/C=C/C)cc2C)C1=O` (stereo not drawn) [Compound B174], the pest or weed control at 250 g/ha with Avena fatua (AVEFA) (setting [11]) stood at 90%; with Avena fatua (AVEFA) (setting [12]) it was 70%; in test [1] (setting [13]), 100%; in test [1] (setting [14]), 90%; in the test on Lolium perenne (LOLPE) (setting [15]) it was 90%; with Lolium perenne (LOLPE) (setting [16]), 100%. Also, the pest or weed control at 250 g/ha in test [2] (setting [17]) and in test [2] (setting [18]) was 100% each time.

Take `Cc1cc(-c2ncc(Cl)cn2)cc(C)c1C1C(=O)C[C@@H](CC(=O)NC(C)(C)C)C1=O` (stereo partly drawn) [Compound B49]: the pest or weed control at 250 g/ha in the test on Avena fatua (AVEFA) (setting [3]) was 100%; in the test on Avena fatua (AVEFA) (setting [4]), 90%; in test [1] (setting [5]), 100%; in test [1] (setting [6]) it was 100%; in the test with Lolium perenne (LOLPE) (setting [7]), 100%; in the test on Lolium perenne (LOLPE) (setting [8]) it was 100%. Also, the pest or weed control at 250 g/ha in test [2] (setting [9]) and in test [2] (setting [10]) was 100% throughout.

Consider `Cc1cc(C)c(C2C(=O)CC(CC(=O)NCC#CCCl)C2=O)c(C)c1` (stereo not drawn) [Compound B36], for which the pest or weed control at 250 g/ha in the test on Avena fatua (AVEFA) (setting [3]) came to 40%; with Avena fatua (AVEFA) (setting [4]), 0%; in test [1] (setting [5]), 20%; in test [1] (setting [6]), 0%; in the test with Lolium perenne (LOLPE) (setting [7]), 50%; in the test with Lolium perenne (LOLPE) (setting [8]) it was 80%. Also, the pest or weed control at 250 g/ha stood at 30% in test [2] (setting [9]) and 50% in test [2] (setting [10]).
